Reference: patent US7091351B2, “Vanadium compounds for treating cancer” (Parker Hughes Institute, priority 1998, dated 2006)

Legend:
Format in all cases: cell-based, human
[1] = test system: Tera-2 testicular cancer cells; assay: Flow cytometric TUNEL apoptosis assay, TERA-2 cells; conditions: 24 h, TUNEL-positive nuclei
Protocol: A flow cytometric two-color terminal […] transferase (TdT)-mediated digoxigenin-uridine triphosphate (dUTP) nick-end labeling assay (TUNEL) was employed to detect apoptotic nuclei. Gavrieli, Y., Sherman, Y., Ben-Sasson, S. A. Identification of programmed cell death in situ via specific labeling of nuclear DNA fragmentation. J. Cell Biol., 119: 493–501, 1992. Exponentially growing cells (10^6/ml) were incubated in DMSO alone (0.1%) or treated with 100 μM each of the 16 vanadocenes (VDB, VDC, VMDC, VDI, VDA, VDCN, VDOCN, VDSCN, VDSeCN, VDT, VDCO, VDFe, VD(acac), VDH, VD(dpy), and VD(dtc) in 0.1% DMSO for 24 h. Cells were washed in PBS, fixed in 4% paraformaldehyde in PBS for 15 min on ice. Following two washings in PBS, they were permeabilized with 0.1% Triton X-100 in 0.1% sodium citrate for 2 min on ice, and washed twice in PBS. Labeling of exposed 3′-hydroxyl (3′-OH) ends of fragmented nuclear DNA was performed using TdT and fluorescein isothiocyanate (FITC)-conjugated dUTP according to the manufacturer's recommendations (Boehringer Mannheim, Indianapolis, Ind.). Cells were counterstained with 5 μg/ml PI. Control samples included: (i) untreated cells; (ii) cells incubated with the reaction mixture without the TdT enzyme. Cells were analyzed with a FACS Calibur flow cytometer (Becton Dickinson, Mountain View, Calif.). Relative DNA content (PI) was detected with band-pass filter 585/42, and dUTP incorporation (FITC) was detected with band-pass filter 530/30. Fluorescence was compensated for in the acquisition software using single-label control samples. Data were acquired in listmode, gated to 10,000 events per sample, and analyzed with the use of CELLQuest software program (Becton Dickinson). […] Vanadocene-induced apoptosis is shown by an increase in the number of cells staining with FITC-dUTP. The M1 and M2 gates were used to demarcate non-apoptotic and apoptotic PI-counterstained cell populations, respectively. TUNEL assays were performed using two testicular cell lines Tera-2 and Ntera-2 following exposure to each of the 16 vanadocenes. In other experiments, MC540 binding (as an early marker of apoptosis) and PI permeability (as a marker of advanced stage apoptosis) were simultaneously measured in human cancer cells 24 hours after exposure to vanadocenes, as previously described. Uckun, F. M., Narla, R. K., Jun, X., Zeren, T., Venkatachalam, T., Waddick, K. G., Rostostev, A., Myers, D. E. Cytotoxic activity of EGF-genstein against breast cancer cells. Clin. Cancer Res. 4:901–912, 1998. Vassilev, A., Ozer, Z., Navara, C., Mahajan, S., and Uckun, F. M. Bruton's tyrosine kinase as an inhibitor of the Fas/CD95 death-inducing signaling complex. J. Biol. Chem. 274:1646–56, 1999. Whole cells were analyzed using a FACStar Plus flow cytometer (Becton Dickinson, San Jose, Calif.). All analyses were done using 488 nm excitation from an argon laser. MC540 and PI emissions were split with a 600 nm short pass dichroic mirror and a 575 nm band pass filter was placed in front of one photomultiplier tube to measure MC540 emission and a 635 nm band pass filter was used for PI emission.

[2] = test system: HS445 Hodgkin's lymphoma cells; assay: MTT cytotoxicity assay of oxovanadium(IV) compounds, HS445; conditions: 48 hr
Protocol: (§1) The cytotoxicity of oxovanadium (W) complexes listed in Table 6 were tested against 9 different human cancer cell lines was performed using the MTT (3-[4,5-dimethylthiazol-2-yl]-2,5-diphenyl tetrazolium bromide) assay (Boehringer Mannheim Corp., Indianapolis, Ind.) as described previously (20). Briefly, exponentially growing tumor cells were seeded into a 96-well plate at a density of 4×10^4cells/well and incubated with medium containing the oxovanadium(IV) compounds concentrations ranging from 0.1 to 250 μM for 48 hours at 37° C. in a humidified 5% CO2 atmosphere. Triplicate wells were used for each treatment. To each well, 10 μl of MTT (0.5 mg/ml final concentration) was added and the plates were incubated at 37° C. for 4 hours to allow MTT to form formazan crystals by reacting with metabolically active cells . The formazan crystals were solubilized overnight at 37° C. in a solution containing 10% SDS in 0.01 M HCl. The absorbence of each well was measured in a microplate reader (Labsystems) at 540 nm and a reference wavelength of 690 nm. To translate the OD540 values into the number of live cells in each well, the OD540 values were compared to those on standard OD540—versus—cell number curves generated for each cell line. The percent survival was calculated using the formula: % survival=Live cell number[test]/Live cell number [control]×100. The IC50 values were calculated by non-linear regression analysis using an Graphpad Prism software version 2.0 (Graphpad Software, Inc., San Diego, Calif.).

[3] = test system: HS-SULTAN multiple myeloma cells; assay: MTT cytotoxicity assay of oxovanadium(IV) compounds, HS-SULTAN; conditions: 48 hr
Protocol: as §1

[4] = test system: Tera-2 testicular cancer cells; assay: Cytotoxic activity of oxovanadium(IV) compounds, TERA-2; conditions: read-out: Cytotoxic Activity TERA-2
Protocol: as §1

[5] = test system: NTD1 testicular cancer cells; assay: Cytotoxic activity of oxovanadium(IV) compounds, NTD1; conditions: read-out: Cytotoxic Activity NTD1
Protocol: as §1

[6] = test system: U373 glioblastoma cells; assay: Cytotoxic activity of oxovanadium(IV) compounds, U373; conditions: read-out: Cytotoxic Activity U373
Protocol: as §1

[7] = test system: PC3 prostate cancer cells; assay: Cytotoxic activity of oxovanadium(IV) compounds, PC3; conditions: read-out: Cytotoxic Activity PC3
Protocol: as §1

[8] = test system: NALM-6 cells; assay: Mitochondrial mass determination, NAO staining; conditions: 0.1-1 μM, 24-96 hr
Protocol: Relative mitochondrial mass was measured by using Becton Dickinson Calibur flow cytometry and the fluorescent stain 10-n-nonyl-acridine orange (NAO), which binds the mitochondrial phospholipid cardiolipin, that has been extensively used to provide an index of mitochondrial mass (28). 1×10^6 compound 29-treated NALM-6 cells at concentrations of 0.1 μM to 1 μM for 24 hr, 48 hr, 72 hr, or 96 hr were incubated with 30 μM of NAO in complete medium for 10 min at room temp in the dark, washed with ice-cold PBS and analyzed using log scale photomultiplier to detect the green fluorescence at 527 nm. Relative change in the mitochondrial mass was measured using the mean fluorescence value of mitochondria of compound 29-treated and vehicle-treated cells.

Compound | % Apoptosis at 100 μM TERA-2 [1] | IC50 [2] | IC50 [3] | IC50 [4] | IC50 [5] | IC50 [6] | IC50 [7] | mitochondrial mass (NAO staining intensity, treated versus untreated) [8]
[Cl-].[Cl-].[V+4].c1cc[cH-]c1.c1cc[cH-]c1 [VDC, VCp2Cl2] | 88 (87, 89) % | – | – | – | – | – | – | –
bis(4,7-dimethyl-1,10-phenanthroline)sulfatooxovanadium(IV) [Compound 29] | – | 0.5 ± 0.08 µM | 0.8 ± 0.05 µM | 19.5 µM | 10.8 µM | 1.8 µM | 1.7 µM | virtually identical staining intensity of NAO
